Values of other authors, collected in patent US20260125371A1, “METHOD FOR INHIBITING CLOSTRIDIOIDES DIFFICILE SPORE GERMINATION” (UNIVERSITY OF NOTRE DAME DU LAC, priority 2022, published 2026).
Values after ≈ are worked out from the molar mass of the structure shown. Like-named read-outs stand apart in the source and are kept apart here.

Assays:
Conditions in all cases: cited from earlier work
S. aureus = test system: S. aureus
[1] = test system: S. haemolyticus ATCC 29970
S. pyogenes ATCC 49399 = test system: S. pyogenes ATCC 49399

SMILES | MIC against MRSA (S. aureus; MRSA) | MIC (S. aureus; S. aureus ATCC 27660) | MIC (S. aureus; S. aureus ATCC 29213) | MIC (S. aureus; S. aureus NRS100 (COL)) | MIC (S. aureus; S. aureus NRS119) | MIC (S. aureus; S. aureus NRS120) | MIC (S. aureus; S. aureus VRS1) | MIC (S. aureus; S. aureus VRS2) | MIC [1] | MIC (S. pyogenes ATCC 49399)
FC(F)(F)c1ccc(Oc2ccc(-c3noc(-c4ccc5[nH]ccc5c4)n3)cc2)cc1 [Compound 1] | 2 µg/mL (≈ 4.75 µM) | 4 µg/mL (≈ 9.49 µM) | 4 µg/mL (≈ 9.49 µM) | 2 µg/mL (≈ 4.75 µM) | 2 µg/mL (≈ 4.75 µM) | 2 µg/mL (≈ 4.75 µM) | 2 µg/mL (≈ 4.75 µM) | 2 µg/mL (≈ 4.75 µM) | 8 µg/mL (≈ 19 µM) | 64 µg/mL (≈ 152 µM)
Oc1ccc(-c2nc(-c3ccc(OC4CCCC4)cc3)no2)cc1 [Compound 2] |  | 2 to 4 µg/mL | 2 µg/mL (≈ 6.2 µM) | 1 µg/mL (≈ 3.1 µM) | 1 to 2 µg/mL | 2 µg/mL (≈ 6.2 µM) | 2 µg/mL (≈ 6.2 µM) | 2 µg/mL (≈ 6.2 µM) | 2 µg/mL (≈ 6.2 µM) | >128 µg/mL
